# Data taken from PubChem BioAssay (NCI).
#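 96-well plates; 48 h exposure; 5 concentrations. Endpoints by linear interpolation between flanking doses. Not reached: highest tested concentration assigned. GI50: concentration for 50% inhibition of growth. TGI: concentration producing complete growth inhibition.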
# Experiments:
# Test in all cases: DTP human tumour cell line panel, 48 h
# [1] = test system: SF-295 CNS
# [2] = test system: ACHN renal
# [3] = test system: HL-60(TB) leukemia
# [4] = test system: RXF 393 renal
# [5] = test system: OVCAR-8 ovarian
# [6] = test system: NCI-H226 lung
# [7] = test system: MCF7 breast
# [8] = test system: NCI/ADR-RES ovarian
# [9] = test system: OVCAR-5 ovarian
# [10] = test system: HCT-15 colon
# [11] = test system: HOP-62 NSCLC
# [12] = test system: SR leukemia
# [13] = test system: NCI-H522 lung
# [14] = test system: UO-31 renal
# [15] = test system: UACC-257 melanoma
# [16] = test system: SW-620 colon
# [17] = test system: LOX IMVI melanoma
# [18] = test system: SNB-75 CNS
# [19] = test system: A549 NSCLC
# [20] = test system: MDA-MB-231 breast
# [21] = test system: UACC-62 melanoma
# [22] = test system: 786-0 renal
# [23] = test system: HS 578T breast
# [24] = test system: CAKI-1 renal
# [25] = test system: SK-MEL-2 melanoma
# [26] = test system: CCRF-CEM leukemia
# [27] = test system: SK-OV-3 ovarian
# [28] = test system: HT29 colon
# [29] = test system: SN12C renal
# [30] = test system: IGROV1 ovarian
# [31] = test system: OVCAR-3 ovarian
# [32] = test system: EKVX NSCLC
# [33] = test system: K-562 leukemia
# [34] = test system: PC-3 prostate
# [35] = test system: COLO 205 colon
# [36] = test system: MOLT-4 leukemia
# [37] = test system: SK-MEL-28 melanoma
# [38] = test system: DU-145 prostate
# [39] = test system: A498 renal
# [40] = test system: U251 CNS
# [41] = test system: SK-MEL-5 melanoma
# [42] = test system: OVCAR-4 ovarian
# [43] = test system: HOP-92 NSCLC
# [44] = test system: HCT-116 colon
# [45] = test system: BT-549 breast
# [46] = test system: SF-268 CNS
# [47] = test system: M14 melanoma
# [48] = test system: NCI-H23 lung
# [49] = test system: MDA-MB-435
# [50] = test system: KM12 colon
# [51] = test system: NCI-H460 lung
# [52] = test system: T-47D breast
# [53] = test system: MDA-N
# [54] = test system: RPMI-8226 leukemia
# [55] = test system: MALME-3M melanoma
# [56] = test system: TK-10 renal
# [57] = test system: SNB-19 CNS
# [58] = test system: SF-539 CNS
# [59] = test system: HCC-2998 colon
structure (smiles),measurement,setting,value
[Cu+2].[NH-]C(CC(=O)O)C(=O)O.[NH-]C(CC(=O)O)C(=O)O (stereo unspecified),GI50,[1],> 100 µM
same,TGI,[1],> 100 µM
same,GI50,[2],> 100 µM
same,TGI,[2],> 100 µM
same,GI50,[3],> 100 µM
same,TGI,[3],> 100 µM
same,GI50,[4],> 100 µM
same,TGI,[4],> 100 µM
same,GI50,[5],> 100 µM
same,TGI,[5],> 100 µM
same,GI50,[6],> 100 µM
same,TGI,[6],> 100 µM
same,GI50,[7],52.3 µM
same,TGI,[7],> 100 µM
same,GI50,[8],> 100 µM
same,TGI,[8],> 100 µM
same,GI50,[9],> 100 µM
same,TGI,[9],> 100 µM
same,GI50,[10],> 100 µM
same,TGI,[10],> 100 µM
same,GI50,[11],> 100 µM
same,TGI,[11],> 100 µM
same,GI50,[12],> 100 µM
same,TGI,[12],> 100 µM
same,GI50,[13],91.8 µM
same,TGI,[13],> 100 µM
same,GI50,[14],> 100 µM
same,TGI,[14],> 100 µM
same,GI50,[15],> 100 µM
same,TGI,[15],> 100 µM
same,GI50,[16],> 100 µM
same,TGI,[16],> 100 µM
same,GI50,[17],> 100 µM
same,TGI,[17],> 100 µM
same,GI50,[18],> 100 µM
same,TGI,[18],> 100 µM
same,GI50,[19],52.1 µM
same,TGI,[19],> 100 µM
same,GI50,[20],> 100 µM
same,TGI,[20],> 100 µM
same,GI50,[21],> 100 µM
same,TGI,[21],> 100 µM
same,GI50,[22],> 100 µM
same,TGI,[22],> 100 µM
same,GI50,[23],> 100 µM
same,TGI,[23],> 100 µM
same,GI50,[24],> 100 µM
same,TGI,[24],> 100 µM
same,GI50,[25],> 100 µM
same,TGI,[25],> 100 µM
same,GI50,[26],0.929 µM
same,TGI,[26],> 100 µM
same,GI50,[27],> 100 µM
same,TGI,[27],> 100 µM
same,GI50,[28],> 100 µM
same,TGI,[28],> 100 µM
same,GI50,[29],> 100 µM
same,TGI,[29],> 100 µM
same,GI50,[30],> 100 µM
same,TGI,[30],> 100 µM
same,GI50,[31],> 100 µM
same,TGI,[31],> 100 µM
same,GI50,[32],> 100 µM
same,TGI,[32],> 100 µM
same,GI50,[33],> 100 µM
same,TGI,[33],> 100 µM
same,GI50,[34],> 100 µM
same,TGI,[34],> 100 µM
same,GI50,[35],> 100 µM
same,TGI,[35],> 100 µM
same,GI50,[36],> 100 µM
same,TGI,[36],> 100 µM
same,GI50,[37],> 100 µM
same,TGI,[37],> 100 µM
same,GI50,[38],> 100 µM
same,TGI,[38],> 100 µM
same,GI50,[39],36.7 µM
same,TGI,[39],> 100 µM
same,GI50,[40],> 100 µM
same,TGI,[40],> 100 µM
same,GI50,[41],26.5 µM
same,TGI,[41],> 100 µM
same,GI50,[42],99.2 µM
same,TGI,[42],> 100 µM
same,GI50,[43],> 100 µM
same,TGI,[43],> 100 µM
same,GI50,[44],> 100 µM
same,TGI,[44],> 100 µM
same,GI50,[45],> 100 µM
same,TGI,[45],> 100 µM
same,GI50,[46],> 100 µM
same,TGI,[46],> 100 µM
same,GI50,[47],> 100 µM
same,TGI,[47],> 100 µM
same,GI50,[48],> 100 µM
same,TGI,[48],> 100 µM
same,GI50,[49],40.2 µM
same,TGI,[49],> 100 µM
same,GI50,[50],> 100 µM
same,TGI,[50],> 100 µM
same,GI50,[51],> 100 µM
same,TGI,[51],> 100 µM
same,GI50,[52],> 100 µM
same,TGI,[52],> 100 µM
same,GI50,[53],> 100 µM
same,TGI,[53],> 100 µM
same,GI50,[54],> 100 µM
same,TGI,[54],> 100 µM
same,GI50,[55],> 100 µM
same,TGI,[55],> 100 µM
same,GI50,[56],> 100 µM
same,TGI,[56],> 100 µM
same,GI50,[57],49.5 µM
same,TGI,[57],> 100 µM
COc1ccc(-c2nc3c(C(=O)NCCN(C)C)cccc3c3ccccc23)cc1,TGI,[1],4.83 µM
same,TGI,[2],12.8 µM
same,TGI,[3],7 µM
same,TGI,[5],20.6 µM
same,TGI,[6],17.1 µM
same,TGI,[7],8.65 µM
same,TGI,[8],45.4 µM
same,TGI,[9],18.2 µM
same,TGI,[10],9.46 µM
same,TGI,[11],13.3 µM
same,TGI,[12],6.96 µM
same,TGI,[13],8.82 µM
same,TGI,[14],5.16 µM
same,TGI,[15],3.56 µM
same,TGI,[16],14.5 µM
same,TGI,[17],2.94 µM
same,TGI,[18],17.6 µM
same,TGI,[19],12.6 µM
same,TGI,[20],12.2 µM
same,TGI,[21],4.66 µM
same,TGI,[22],6.86 µM
same,TGI,[23],28.9 µM
same,TGI,[24],7.05 µM
same,TGI,[25],18.4 µM
same,TGI,[26],10.3 µM
same,TGI,[58],4.87 µM
same,TGI,[28],7.78 µM
same,TGI,[29],16.9 µM
same,TGI,[30],14.6 µM
same,TGI,[31],16.6 µM
same,TGI,[32],19.6 µM
same,TGI,[33],4.68 µM
same,TGI,[34],13.7 µM
same,TGI,[35],4.51 µM
same,TGI,[36],6.55 µM
same,TGI,[37],3.71 µM
same,TGI,[38],17.4 µM
same,TGI,[39],8.96 µM
same,TGI,[40],10.1 µM
same,TGI,[41],3.3 µM
same,TGI,[42],12.5 µM
same,TGI,[43],12.3 µM
same,TGI,[44],11.6 µM
same,TGI,[45],22.3 µM
same,TGI,[46],24.5 µM
same,TGI,[47],3.93 µM
same,TGI,[48],19.6 µM
same,TGI,[49],5.16 µM
same,TGI,[50],14.9 µM
same,TGI,[51],10.9 µM
same,TGI,[52],29.7 µM
same,TGI,[53],5.45 µM
same,TGI,[59],3.85 µM
same,TGI,[55],8.7 µM
same,TGI,[56],19.8 µM
same,TGI,[57],11.7 µM
CN1C(=O)C2(c3ccccc31)C1CC3C(CO1)C1C2C3(CO)CN1C#N (stereo unspecified),TGI,[1],> 100 µM
same,TGI,[2],> 100 µM
same,TGI,[3],> 100 µM
same,TGI,[4],> 100 µM
same,TGI,[5],> 100 µM
same,TGI,[6],> 100 µM
same,TGI,[7],> 100 µM
same,TGI,[8],> 100 µM
same,TGI,[9],> 100 µM
same,TGI,[10],> 100 µM
same,TGI,[11],> 100 µM
same,TGI,[12],> 100 µM
same,TGI,[13],> 100 µM
same,TGI,[14],> 100 µM
same,TGI,[15],> 100 µM
same,TGI,[17],> 100 µM
same,TGI,[18],> 100 µM
same,TGI,[19],> 100 µM
same,TGI,[20],> 100 µM
same,TGI,[21],> 100 µM
same,TGI,[22],> 100 µM
same,TGI,[23],> 100 µM
same,TGI,[24],> 100 µM
same,TGI,[25],> 100 µM
same,TGI,[26],> 100 µM
same,TGI,[27],> 100 µM
same,TGI,[28],> 100 µM
same,TGI,[29],> 100 µM
same,TGI,[30],> 100 µM
same,TGI,[31],> 100 µM
same,TGI,[32],> 100 µM
same,TGI,[33],> 100 µM
same,TGI,[34],> 100 µM
same,TGI,[35],> 100 µM
same,TGI,[36],> 100 µM
same,TGI,[37],> 100 µM
same,TGI,[38],> 100 µM
same,TGI,[40],> 100 µM
same,TGI,[41],> 100 µM
same,TGI,[42],> 100 µM
same,TGI,[43],> 100 µM
same,TGI,[44],> 100 µM
same,TGI,[45],> 100 µM
same,TGI,[46],> 100 µM
same,TGI,[47],> 100 µM
same,TGI,[48],> 100 µM
same,TGI,[49],> 100 µM
same,TGI,[50],> 100 µM
same,TGI,[51],> 100 µM
same,TGI,[52],> 100 µM
same,TGI,[53],> 100 µM
same,TGI,[54],> 100 µM
same,TGI,[59],> 100 µM
same,TGI,[55],> 100 µM
same,TGI,[56],> 100 µM
same,TGI,[57],> 100 µM
